Measured values taken from patent US10654834B2 (Venenum Biodesign, LLC, priority 2016, dated 2020).

Key:
Format in all cases: in vivo, mouse
[1] = Bile weight after a single oral administration in DIO mice; details: 30 mg/kg + sitagliptin 10 mg/kg p.o., 6, 12, 18, 24 h
Procedure: Bile Weight after a Single Oral Administration of the Compound
In this study, we evaluated if the observed GLP-1 elevation (induced by the compounds of the present invention) may be associated with gallbladder filling. We treated mice with Compound 268 and monitored the bile weight (a measure that indicated gallbladder filling) to determine if the compound retained more bile in the gallbladder as compared to the control mice (i.e., vehicle alone). A time course study was performed to measure weight of the bile aspirated from the gallbladder after oral administration of Compound 268 (30 mg/kg) in high fat diet induced obese (DIO) mice. In this study, GLP-1 levels were also measured at each time point (FIG. 9).
Approximately 12 week old DIO male mice (obtained from Taconic) were acclimated in the testing facility for over two weeks. The mice were provided a high fat diet [Research Diet D12492 (60% Fat kcal)] while in the testing facility. […] The blood samples were distributed as follows: 150-200 μL of blood were placed in an EDTA K^2+ tube containing 5 μL of 40 mg/mL aprotinin (Sigma A1153) and 1 μL of 10 mM sitagliptin (Sigma 58576) to be used for GLP-1 measurements; the remaining blood (≥250 μL) was placed in an EDTA K^2+ tube and plasma was processed for analytical chemistry and analyzed by LCMS/MS method as described in Example 81. […]

[2] = Body weight over 6 weeks of BID dosing in DIO mice; details: 30 mg/kg BID p.o.
Procedure: Monitoring of Weight Loss after Multiple Weeks of Dosing Compounds
Compounds of the present invention were dosed for multiple weeks and were evaluated for their ability to cause mice to lose weight.
(§1) In the next series of studies (Examples 93-99), Male DIO mice were received at 12 weeks of age (from Taconic), and were single-housed at the testing facility and acclimated for at least 2 weeks. The mice were provided a high fat diet [Research Diet D12492 (60% Fat kcal)] while in the testing facility. Before the study initiation, the animals were randomized into 5 experimental groups by body weight. The vehicle group contained only 0.5% carboxymethylcellulose (medium viscosity)+0.25% Tween-80. The second group contained 10 mg/kg of the DPP-IV inhibitor Sitagliptin while the third group contained 30 mg/kg Compound 268. The fourth group contained the combination of 10 mg/kg Sitagliptin and 30 mg/kg Compound 268. The fifth group was the positive control for weight loss, Rimonabant. All mice were dosed BID at approximately 6:00 am and again at approximately 4:00 pm. The positive control rimonabant was administered at a dose of 10 mg/kg in the afternoon and the morning dosing was vehicle (no compound).
Compounds of the present invention were evaluated for their ability to cause mice to lose weight. Mice were dosed compounds for 6 weeks and body weights were recorded twice a week.

[3] = 6-week DEXA body composition analysis in DIO mice; details: 6 weeks BID dosing
From the text: as §1
6-Week Dexa Analysis after Multiple Weeks of Dosing Compounds
Compounds of the present invention were dosed for multiple weeks and the mice were analyzed to determine whether weight loss seen in Example 93 was due to a loss in fat or lean mass.
In this example, the protocol from Example 93 was utilized. The day of experiment, the mice were anesthetized using 2.5% avertin [tert-amyl alcohol (Aldrich #15,256-3) and 2,2,2-tribromoethanol (Aldrich # T4, 840-2)]. Their body composition was assessed using the PIXImus2 X-ray unit (GE Lunar Corporation, Madison, Wis.) connected to a computer equipped with LUNAR PIXImus2 software. The head region of each mouse was excluded from the analysis. The following measurements were automatically measured or calculated by the PIXImus2 software: bone mineral density (BMD), bone mineral content (BMC), bone area (B Area), tissue area (T Area), percent fat, and total tissue mass (TTM). Fat mass, the percentage of lean mass, and lean mass, were calculated manually as follows: % Lean=100−% Fat Lean Mass=TTM×(100−% Fat) Fat Mass=TTM×% Fat

[4] = Food intake over multiple weeks of dosing in DIO mice; details: 30 mg/kg BID p.o., 6 weeks
From the text: as §1, with “compound). […]” for “compound).”
Compounds of the present invention were dosed for multiple weeks and were evaluated for their ability to cause mice to have a lower food intake. […]
The HFD (Research Diets, D12492, 60% fat kcal) was placed at the bottom of the cage on a singly-housed animal. […] Daily food intake is calculated by averaging over a 3 or 4 day period every week.

[5] = Bile weight in lean C57BL/6N mice after OGTT; details: 30 mg/kg + sitagliptin 3 mg/kg p.o., 6 h, versus sitagliptin alone
Procedure: In addition, bile weight was determined in the OGTT study on lean mice described in Example 84 above. At the end of that study, bile was removed from the gallbladder and weighed to approximate volume of bile contained within the gallbladder.
FIG. 7 depicts bile weight in DIO mice at 6, 12, 18, and 24 hours after oral administration of 10 mg/kg sitagliptin alone or 10 mg/kg sitagliptin+30 mg/kg Compound 268. FIG. 8 depicts the comparison in bile weight between sitagliptin (3 mg/kg, p.o.) and Compound 268 (30 mg/kg, p.o.)+sitagliptin (3 mg/kg, p.o.) following an OGTT assay in lean C57BL/6N mice, 6 hours after treatment. FIG. 9 illustrates plasma GLP-1 levels from the DIO mice at the same time points.

[6] = Plasma concentration of compound in lean C57BL/6N mice after OGTT; details: 6 h after 30 mg/kg + sitagliptin 3 mg/kg
Procedure: In these studies, the plasma concentration of the compounds of the present invention was measured in DIO mice as well as lean C57BL/6N mice.
In the second study (data represented in FIG. 11), plasma concentration levels were measured in lean mice after an OGTT experiment described in Example 84. The blood was collected via cardiac puncture 6 hours post compound dosing (and 2 hours after the 2 g/kg glucose bolus). The blood samples (?250 μL) were placed in an EDTA K^2+ tube and plasma was processed for analytical chemistry and analyzed by LCMS/MS method as described in Example 81. FIG. 11 depicts low levels of Compound 268 following OGTT in lean C57BL/6N mice, 6 hours after treatment with 30 mg/kg in combination with 3 mg/kg sitagliptin.

In the case of N#Cc1ccc(CCNC(=O)[C@@H]2CCN2c2cc(N3CCC(CCNC(=O)NCCC(=O)O)CC3)nc(C(F)(F)F)n2)cc1 [Compound 268, (S)-3-(3-(2-(1-(6-(2-((4-cyanophenethyl)carbamoyl)azetidin-1-yl)-2-(trifluoromethyl)pyrimidin-4-yl)piperidin-4-yl)ethyl)ureido)propanoic acid], the bile weight [1] is reported as “did not cause any significant increase in bile weight”, the body weight change [2] is reported as “modest weight loss” and the “fat mass versus lean mass (DEXA)” value [3] is reported as “due to a loss in the Fat Mass”. For the same compound, the “loss in weight / total tissue mass (DEXA)” value [3] was “about the same loss in weight”, the food intake [4] was “minor, but steady effect on food intake” and the bile weight [5] was “no significant differences in bile weight”. For the same compound, the “plasma concentration of compound” value [6] was “low levels”.
